Results as given in patent US6525001B1, “Substituted pyrimidine and pyridine herbicides” (Mid-American Commercialization Corporation, priority 1997, dated 2003).

What was measured:
Format in all cases: in vivo
Set-up in all cases: key: 0 is no effect; 10 is complete control
rice (Oryza sativa) = test: Test B flood test
Procedure, shortened: (§1)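 Flood test on plants grown to the 2-leaf stage; treated plants kept in greenhouse twelve to sixteen days, then visually rated against controls on a 0 (no effect) to 10 (complete control) scale.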

[1] = test system: smallflower flatsedge (Cyperus difformis); test: Test B flood test
Procedure, shortened: as §1

[2] = test system: bamyardgrass (Echinochloa crus-galli); test: Test B flood test
Procedure, shortened: as §1

[3] = test system: duck salad (Heteranthera limosa); test: Test B flood test
Procedure, shortened: as §1

[4] = test system: crabgrass (Digitaria sanguinalis); test: Test B pre-/postemergence
Procedure, shortened: (§2)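 Scored visually 0 (none) to 10 (complete control) against untreated plants after twelve to sixteen greenhouse days. Test chemicals, formulated in surfactant-containing non-phytotoxic solvent, applied to soil after planting and, separately, onto 1- to 4-leaf (2–18 cm) plants.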

[5] = test system: sugar beet (Beta vulgaris); test: Test B pre-/postemergence
Procedure, shortened: as §2

[6] = test system: bedstraw (Galium aparine); test: Test B pre-/postemergence
Procedure, shortened: as §2

[7] = test system: pigweed (Amaranthus retroflexus); test: Test B pre-/postemergence
Procedure, shortened: as §2

[8] = test system: momingglory (Ipomoea hederacea); test: Test B pre-/postemergence
Procedure, shortened: as §2

[9] = test system: giant foxtail (Setaria faberii); test: Test B pre-/postemergence
Procedure, shortened: as §2

soybean (Glycine max) = test: Test B pre-/postemergence
Procedure, shortened: as §2

wild oat (Avena fatua) = test: Test B pre-/postemergence
Procedure, shortened: as §2

rape (Brassica napus) = test: Test B pre-/postemergence
Procedure, shortened: as §2

[10] = test system: blackgrass (Alopecurus myosuroides); test: Test B pre-/postemergence
Procedure, shortened: as §2

corn (Zea mays) = test: Test B pre-/postemergence
Procedure, shortened: as §2

[11] = test system: cocklebur (Xanthium strumarium); test: Test B pre-/postemergence
Procedure, shortened: as §2

[12] = test system: purple nutsedge (Cyperus rotundus); test: Test B pre-/postemergence
Procedure, shortened: as §2

[13] = test system: wheat (Triticum aestivum); test: Test B pre-/postemergence
Procedure, shortened: as §2

[14] = test system: velvetleaf (Abutilon theophrasti); test: Test B pre-/postemergence
Procedure, shortened: as §2

[15] = test system: broadleaf signalgrass (Brachiaria decumbens); test: Test B pre-/postemergence
Procedure, shortened: as §2

[16] = Rate 62 g/ha, Postemergence (flood test)
[17] = Rate 125 g/ha, Postemergence, flood test
[18] = Rate 250 g/ha, Postemergence (flood test species)

Cc1cnc(-c2ccc(C(F)(F)F)cc2)nc1C(C)c1cccc(C(F)(F)F)c1 (racemic) [Compound 19]
Plant response rating, Rice (rice (Oryza sativa); [16]): 0
Plant response rating, Rice (rice (Oryza sativa); [17]): 0
Plant response rating, Rice (rice (Oryza sativa); [18]): 2
Plant response rating, S. Flatsedge [1, 16]: 0
Plant response rating, S. Flatsedge [1, 17]: 2
Plant response rating, S. Flatsedge [1, 18]: 6
Plant response rating, Barnyardgrass [2, 16]: 0
Plant response rating, Barnyardgrass [2, 17]: 2
Plant response rating, Barnyardgrass [2, 18]: 3
Plant response rating, Ducksalad [3, 16]: 0
Plant response rating, Ducksalad [3, 17]: 2
Plant response rating, Ducksalad [3, 18]: 7
Plant response rating, Crabgrass ([4]; Rate 62 g/ha, Postemergence): 1
Crabgrass plant response rating ([4]; Rate 62 g/ha, Preemergence): 0
Plant response rating, Crabgrass ([4]; Rate 125 g/ha, Postemergence): 2
Crabgrass plant response rating ([4]; Rate 125 g/ha, Preemergence): 0
Plant response rating, Crabgrass ([4]; Rate 250 g/ha, Postemergence): 2
Plant response rating, Crabgrass ([4]; Rate 250 g/ha, Preemergence): 0
Plant response rating, Sugarbeets ([5]; Rate 62 g/ha, Postemergence): 2
Sugarbeets plant response rating ([5]; Rate 62 g/ha, Preemergence): 0
Plant response rating, Sugarbeets ([5]; Rate 125 g/ha, Postemergence): 4
Sugarbeets plant response rating ([5]; Rate 125 g/ha, Preemergence): 0
Plant response rating, Sugarbeets ([5]; Rate 250 g/ha, Postemergence): 6
Plant response rating, Sugarbeets ([5]; Rate 250 g/ha, Preemergence): 0
Plant response rating, Bedstraw ([6]; Rate 62 g/ha, Postemergence): 2
Bedstraw plant response rating ([6]; Rate 62 g/ha, Preemergence): 0
Plant response rating, Bedstraw ([6]; Rate 125 g/ha, Postemergence): 3
Bedstraw plant response rating ([6]; Rate 125 g/ha, Preemergence): 0
Plant response rating, Bedstraw ([6]; Rate 250 g/ha, Postemergence): 3
Plant response rating, Bedstraw ([6]; Rate 250 g/ha, Preemergence): 0
Plant response rating, Redroot pigweed ([7]; Rate 62 g/ha, Postemergence): 2
Redroot pigweed plant response rating ([7]; Rate 62 g/ha, Preemergence): 0
Plant response rating, Redroot pigweed ([7]; Rate 125 g/ha, Postemergence): 5
Redroot pigweed plant response rating ([7]; Rate 125 g/ha, Preemergence): 0
Plant response rating, Redroot pigweed ([7]; Rate 250 g/ha, Postemergence): 7
Plant response rating, Redroot pigweed ([7]; Rate 250 g/ha, Preemergence): 0
Plant response rating, Morningglory ([8]; Rate 62 g/ha, Postemergence): 3
Morningglory plant response rating ([8]; Rate 62 g/ha, Preemergence): 0
Plant response rating, Morningglory ([8]; Rate 125 g/ha, Postemergence): 3
Morningglory plant response rating ([8]; Rate 125 g/ha, Preemergence): 0
Plant response rating, Morningglory ([8]; Rate 250 g/ha, Postemergence): 6
Plant response rating, Morningglory ([8]; Rate 250 g/ha, Preemergence): 0
Plant response rating, Giant foxtail ([9]; Rate 62 g/ha, Postemergence): 0
Giant foxtail plant response rating ([9]; Rate 62 g/ha, Preemergence): 0
Plant response rating, Giant foxtail ([9]; Rate 125 g/ha, Postemergence): 0
Giant foxtail plant response rating ([9]; Rate 125 g/ha, Preemergence): 0
Plant response rating, Giant foxtail ([9]; Rate 250 g/ha, Postemergence): 1
Plant response rating, Giant foxtail ([9]; Rate 250 g/ha, Preemergence): 0
Plant response rating, Soybean (soybean (Glycine max); Rate 62 g/ha, Postemergence): 2
Soybean plant response rating (soybean (Glycine max); Rate 62 g/ha, Preemergence): 0
Plant response rating, Soybean (soybean (Glycine max); Rate 125 g/ha, Postemergence): 3
Soybean plant response rating (soybean (Glycine max); Rate 125 g/ha, Preemergence): 0
Plant response rating, Soybean (soybean (Glycine max); Rate 250 g/ha, Postemergence): 4
Plant response rating, Soybean (soybean (Glycine max); Rate 250 g/ha, Preemergence): 0
Plant response rating, Wild oats (wild oat (Avena fatua); Rate 62 g/ha, Postemergence): 0
Wild oats plant response rating (wild oat (Avena fatua); Rate 62 g/ha, Preemergence): 0
Plant response rating, Wild oats (wild oat (Avena fatua); Rate 125 g/ha, Postemergence): 1
Wild oats plant response rating (wild oat (Avena fatua); Rate 125 g/ha, Preemergence): 0
Plant response rating, Wild oats (wild oat (Avena fatua); Rate 250 g/ha, Postemergence): 2
Plant response rating, Wild oats (wild oat (Avena fatua); Rate 250 g/ha, Preemergence): 0
Plant response rating, Rape (rape (Brassica napus); Rate 62 g/ha, Postemergence): 2
Rape plant response rating (rape (Brassica napus); Rate 62 g/ha, Preemergence): 0
Plant response rating, Rape (rape (Brassica napus); Rate 125 g/ha, Postemergence): 2
Rape plant response rating (rape (Brassica napus); Rate 125 g/ha, Preemergence): 0
Plant response rating, Rape (rape (Brassica napus); Rate 250 g/ha, Postemergence): 3
Plant response rating, Rape (rape (Brassica napus); Rate 250 g/ha, Preemergence): 0
Plant response rating, Blackgrass ([10]; Rate 62 g/ha, Postemergence): 1
Blackgrass plant response rating ([10]; Rate 62 g/ha, Preemergence): 0
Plant response rating, Blackgrass ([10]; Rate 125 g/ha, Postemergence): 1
Blackgrass plant response rating ([10]; Rate 125 g/ha, Preemergence): 0
Plant response rating, Blackgrass ([10]; Rate 250 g/ha, Postemergence): 1
Plant response rating, Blackgrass ([10]; Rate 250 g/ha, Preemergence): 0
Plant response rating, Corn (corn (Zea mays); Rate 62 g/ha, Postemergence): 1
Corn plant response rating (corn (Zea mays); Rate 62 g/ha, Preemergence): 0
Plant response rating, Corn (corn (Zea mays); Rate 125 g/ha, Postemergence): 2
Corn plant response rating (corn (Zea mays); Rate 125 g/ha, Preemergence): 0
Plant response rating, Corn (corn (Zea mays); Rate 250 g/ha, Postemergence): 3
Plant response rating, Corn (corn (Zea mays); Rate 250 g/ha, Preemergence): 0
Plant response rating, Cocklebur ([11]; Rate 62 g/ha, Postemergence): 2
Cocklebur plant response rating ([11]; Rate 62 g/ha, Preemergence): 0
Plant response rating, Cocklebur ([11]; Rate 125 g/ha, Postemergence): 3
Plant response rating, Cocklebur ([11]; Rate 250 g/ha, Postemergence): 3
Plant response rating, Cocklebur ([11]; Rate 250 g/ha, Preemergence): 0
Plant response rating, Nutsedge ([12]; Rate 62 g/ha, Postemergence): 0
Nutsedge plant response rating ([12]; Rate 62 g/ha, Preemergence): 0
Plant response rating, Nutsedge ([12]; Rate 125 g/ha, Postemergence): 0
Nutsedge plant response rating ([12]; Rate 125 g/ha, Preemergence): 0
Plant response rating, Nutsedge ([12]; Rate 250 g/ha, Postemergence): 0
Plant response rating, Nutsedge ([12]; Rate 250 g/ha, Preemergence): 0
Plant response rating, Wheat ([13]; Rate 62 g/ha, Postemergence): 0
Wheat plant response rating ([13]; Rate 62 g/ha, Preemergence): 0
Plant response rating, Wheat ([13]; Rate 125 g/ha, Postemergence): 0
Wheat plant response rating ([13]; Rate 125 g/ha, Preemergence): 0
Plant response rating, Wheat ([13]; Rate 250 g/ha, Postemergence): 0
Plant response rating, Wheat ([13]; Rate 250 g/ha, Preemergence): 0
Plant response rating, Velvetleaf ([14]; Rate 62 g/ha, Postemergence): 1
Velvetleaf plant response rating ([14]; Rate 62 g/ha, Preemergence): 0
Plant response rating, Velvetleaf ([14]; Rate 125 g/ha, Postemergence): 2
Velvetleaf plant response rating ([14]; Rate 125 g/ha, Preemergence): 0
Plant response rating, Velvetleaf ([14]; Rate 250 g/ha, Postemergence): 2
Plant response rating, Velvetleaf ([14]; Rate 250 g/ha, Preemergence): 0
Plant response rating, B. signalgrass ([15]; Rate 62 g/ha, Postemergence): 1
B. signalgrass plant response rating ([15]; Rate 62 g/ha, Preemergence): 0
Plant response rating, B. signalgrass ([15]; Rate 125 g/ha, Postemergence): 2
B. signalgrass plant response rating ([15]; Rate 125 g/ha, Preemergence): 0
Plant response rating, B. signalgrass ([15]; Rate 250 g/ha, Postemergence): 2
Plant response rating, B. signalgrass ([15]; Rate 250 g/ha, Preemergence): 0
